From paper PMC10574094, “Discovery of a SHP2 Degrader with In Vivo Anti-Tumor Activity” (Molecules, 2023)

Legend:
SHP2 [1] = biological target: T1, SHP2 (Homo sapiens, UniProt Q06124); design: endogenous in cells; host or cells: KYSE-520; details: cited from earlier work
T1 sequence (Q06124 1-593): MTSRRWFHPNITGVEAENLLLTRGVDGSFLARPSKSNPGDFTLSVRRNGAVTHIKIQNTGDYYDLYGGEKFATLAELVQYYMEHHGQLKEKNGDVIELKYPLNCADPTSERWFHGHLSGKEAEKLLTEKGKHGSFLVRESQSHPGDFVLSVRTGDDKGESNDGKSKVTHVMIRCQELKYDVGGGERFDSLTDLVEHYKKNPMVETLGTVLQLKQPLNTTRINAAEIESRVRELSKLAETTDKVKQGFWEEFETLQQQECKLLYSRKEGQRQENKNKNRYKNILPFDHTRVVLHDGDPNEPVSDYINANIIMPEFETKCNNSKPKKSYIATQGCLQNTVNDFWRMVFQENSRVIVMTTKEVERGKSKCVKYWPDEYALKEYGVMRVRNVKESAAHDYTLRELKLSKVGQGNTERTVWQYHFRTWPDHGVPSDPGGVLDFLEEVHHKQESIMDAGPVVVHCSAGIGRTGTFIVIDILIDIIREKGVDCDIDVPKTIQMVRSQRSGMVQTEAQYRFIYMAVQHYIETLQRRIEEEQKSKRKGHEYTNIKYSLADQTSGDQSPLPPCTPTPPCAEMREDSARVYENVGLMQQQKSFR

SHP2 [2] = biological target: T1, SHP2; assay: SHP2 degradation by Western blotting in HEK293 cells; format: cell-based; design: endogenous in cells; host or cells: HEK293; details: HEK293, 16 h, 250 nM P9 in combination with 1 µM 3, 10 µM MG132, 1 µM MLN4924, 40 µM VHL-2 or 40 µM Lenalidomide
Procedure: HEK293, SKBR3, U2OS, MCF7 and A549 cells were grown in DMEM supplemented with 10% FBS, penicillin (50 units/mL), and streptomycin (50 μg/mL) in a 37 °C incubator containing 5% CO2. […] For western-blot analysis, protein samples were separated by SDS-PAGE, transferred to nitrocellulose membranes, and incubated overnight at 4 °C with corresponding primary antibodies diluted in 5% BSA in phosphate-buffered saline Tween (PBST). SuperSignal™ West Pico PLUS (PI34580; Thermo Scientific) was used to visualize the antibodies in the bioanalytical imaging system (Azure Biosystems c500). […] Anti-PTP1B (ab244207) antibody was purchased from Abcam. For colony formation assay, a total of approximately 200–500 cells were seeded to each well in a 12-well plate.
Supplemental Figures, Schemes, and Tables:
Figure S1. Western blots of degradation assay for PROTAC screening. (A) Degradation assay of
compo un ds i n Table 1 at 1 μM fo r 16 hours in H EK29 3 cells. (B) Degradation assay of compounds in Table
1 at 10 μM for 16 hours in HEK293 cells. (C) Degradation assay of compounds in Table 2 at 1 μM for 16

pERK1/2 = test system: pERK1/2; design: method as in PMID 32910655; details: cited from earlier work

Structure (SMILES)	IC50 (SHP2 [1]) [nM]	effect on P9-induced SHP2 degradation (SHP2 [2])	IC50 (pERK1/2) [nM]
CCCCC1(CN)CCN(c2cnc(Sc3ccnc(N)c3Cl)c(N)n2)CC1 [compound 2]	17	–	–
CC1(CN)CCN(c2cnc(Sc3cccc(Cl)c3Cl)c(N)n2)CC1 [compound 3, reference compound]	–	prohibited P9-induced SHP2 degradation	88
